Results reported in US20220089602A1, “COMPOUNDS THAT INDUCE FERROPTIC CELL DEATH” (The Board of Trustees of the University of Illinois, priority 2019, published 2022).
Entries after “also recorded” stand apart in the source; their conditions may differ.

Columns and labels:
ES-2 cell line = test: 72 hr cell viability assay (Alamar Blue), dose response IC50; assay type: cell-based; details: for anticancer activity (in words): 72 hr cell viability assay, ES-2 cells, relative to ferroptocide; for IC50: Homo sapiens, 72 hr, ES-2 cell line, Alamar Blue fluorescence, mean ± s.e.m., n ≥ 3
Protocol: 40 μL of media was added to each well of a 384-well tissue culture-treated plate. 3×100 nL of compound in DMSO was then pin-transferred from compound storage plates (2 mM stocks) into media-containing wells using the Platemate Plus at the UIUC High Throughput Screening Facility. A 100,000 cells/mL suspension of ES-2 cells was prepared, and 10 μL was added to each well for a final concentration of 1000 cells/well. Doxorubicin (100 μM final) was used as a positive control. Plates were sealed with gas-permeable seals and incubated at 37° C. for 72 h. After incubation, 5 μL of Alamar blue (440 μM resazurin in sterile PBS) was added and allowed to incubate for 3-4 h, until visible color change occurred. Fluorescence was measured in a Molecular Devices SpectraMax 3 (excitation=555 nm, emission=585 nm, emission cutoff=570 nm).
To a 384-well plate, 40 μL of 1.25× compound dilution or 1.25% DMSO-containing media was added (final volume of 1% DMSO). Concentrations of compounds tested were 100 μM to 100 nM. On each plate at least 3 technical replicates per compound were performed. Next, 10 μL of a 100,000 cells/mL suspension was added to each well, yielding a final concentration of 1,000 cells/well. To three wells in column 2 was added 1 μL of 10 mM doxorubicin (final concentration of 200 μM) as positive control of cell death. Plates were sealed with gas-permeable seals and incubated at 37° C. for 72 h. At that time, 5 μL of Alamar blue (440 μM resazurin in sterile PBS) was added and plates were incubated for 3-4 hours. Fluorescence was read on a Molecular Devices SpectraMax 3 (excitation=555 nm, emission=585 nm, emission cutoff=570 nm). Wells were normalized to the average of untreated wells (0% cell death). The data were plotted as compound concentration versus percent dead cells and fitted to a logistic-dose response curve using OriginPro 2015 (OriginLab, Northampton, Mass.). The data were generated in triplicate, and IC50 values are reported as the average of three separate experiments along with standard error of the mean.

ES-2 cells = test: Confocal microscopy competition with fluorescent analogue P30; assay type: cell-based; details: pretreatment at 3× IC50 for 30 min, then P30 (5 μM)
Protocol: ES-2 cells (3×10^5 cell) were attached overnight in […] petri dish plates containing 2 ml of RPMI media. Prior to imaging, cells were stained for 30 min with Mitotracker Red CMXRoss at 100 nM final concentration. Upon media replacement, samples were pre-treated with 3× IC50 of ferroptocide, P27, L1, QQ1 for 30 min followed by treatment with 5 μM P30 for an additional 30 min and a PBS wash. PBS or phenol free media was added to each dish and cells were stained with Hoechst 33342 (1 μg/mL).

[1] = In vitro glutathione assay (LC-MS); assay type: physicochemical; details: 100 μM compound, 5 mM glutathione, PBS, 37° C.
Protocol: To an eppendorf tube added, 245 μL of 1×PBS, 5 μL of 10 mM DMSO stock of ferroptocide or P23 and 250 μL of reduced GSH (5 mM final concentration). Reactions were vortexed briefly and incubated at 37° C. Adduct formation was monitored at the indicated time points (0, 0.5, 1, 2, 3, 24 hr) by mixing an aliquot of 50 μL from the reaction mixture with 50 μL of MeOH before LC/MS analysis.

Row | reactivity with excess glutathione (in words) [1] | Compound | anticancer activity (in words) (ES-2 cell line) | IC50 (ES-2 cell line) [µM] | competition of P30 staining (ES-2 cells)
1 |  | CC(=O)OCC(=O)O[C@@H]1C[C@@H](C2=CCn3c(=O)n(-c4ccccc4)c(=O)n3C2)[C@H](C)[C@@]23CC[C@@H](C)[C@]1(C)[C@]2(O)C(=O)[C@@H](O)C3 [Compound P24] | no anticancer activity | > 100 | 
2 |  | C#CCN1C(=O)C2CC=C([C@@H]3C[C@@H](OC(=O)CCl)[C@]4(C)[C@H](C)CC[C@]5(C[C@H](O)C(=O)[C@]54O)[C@H]3C)CC2C1=O (some centres unmarked) [Compound P29] | retained anticancer activity similar to ferroptocide; also recorded: retain biological activity |  | 
3 |  | C=CC1CN2CCC1CC2[C@H](OC(=O)CCl)c1ccnc2ccc(OC)cc12 (some centres unmarked) [QQ1] |  |  | non-competing compounds
4 |  | CO[C@H]1C[C@@]23CC[C@@H](C)[C@@](C)([C@H](OC(=O)C(Cl)Cl)C[C@@H](C4=CCn5c(=O)n(-c6ccccc6)c(=O)n5C4)[C@@H]2C)[C@]3(O)C1=O [Compound P25] | no anticancer activity | > 100 | 
5 |  | C[C@@H]1CC[C@@]23C[C@H](O)C(=O)[C@@]2(O)[C@]1(C)[C@H](OC(=O)CCl)C[C@@H](C1=CCC2C(=O)N(c4ccccc4)C(=O)C2C1)[C@@H]3C (some centres unmarked) [Compound P28] | minimal loss in activity; also recorded: retain biological activity |  | 
6 |  | CC(=O)O[C@H]1C[C@@]23CC[C@@H](C)[C@@](C)([C@H](OC(=O)CCl)C[C@@H](C4=CCn5c(=O)n(-c6ccccc6)c(=O)n5C4)[C@@H]2C)[C@]3(O)C1=O [Compound P20] | did not change the activity | 1.4 ± 0.5 | 
7 |  | CC[C@H](C)C(=O)O[C@H]1C[C@@H](C)C=C2C=C[C@H](C)[C@H](CC[C@@H]3C[C@@H](OC(=O)CCl)CC(=O)O3)[C@H]21 [Compound L1] |  |  | non-competing compounds
8 |  | C=C[C@]1(C)C[C@@H](OC(=O)CCl)[C@]2(C)[C@H](C)CC[C@]3(CCC(=O)[C@H]32)[C@@H](C)[C@@H]1O [Compound P27] |  |  | non-competing compounds
9 | rapid reaction | C[C@@H]1CC[C@@]23C[C@H](O)C(=O)[C@@]2(O)[C@]1(C)[C@H](OC(=O)CI)C[C@@H](C1=CCn2c(=O)n(-c4ccccc4)c(=O)n2C1)[C@@H]3C [Compound P23] | greater potency in cells | 0.24 ± 0.002 | 
10 |  | CC1=CC(C)=[N+]2C1=Cc1ccc(CCC(=O)NCCCn3cc(CN4C(=O)C5CC=C([C@@H]6C[C@@H](OC(=O)CCl)[C@]7(C)[C@H](C)CC[C@]8(C[C@H](O)C(=O)[C@]87O)[C@H]6C)CC5C4=O)nn3)n1[B-]2(F)F (some centres unmarked) [Compound P30] | retained anticancer activity similar to ferroptocide; also recorded: retain biological activity |  | 
11 |  | CO[C@H]1C[C@@]23CC[C@@H](C)[C@@](C)([C@H](OC(=O)c4ccco4)C[C@@H](C4=CCn5c(=O)n(-c6ccccc6)c(=O)n5C4)[C@@H]2C)[C@]3(O)C1=O [Compound P26] | no anticancer activity | > 100 | 
12 |  | CO[C@H]1C[C@@]23CC[C@@H](C)[C@@](C)([C@H](OC(=O)CCl)C[C@@H](C4=CCn5c(=O)n(-c6ccccc6)c(=O)n5C4)[C@@H]2C)[C@]3(O)C1=O [Compound P19] | did not change the activity | 1.9 ± 0.1 | 
13 |  | CO[C@H]1C[C@@]23CC[C@@H](C)[C@@](C)([C@H](OC(C)=O)C[C@@H](C4=CCn5c(=O)n(-c6ccccc6)c(=O)n5C4)[C@@H]2C)[C@]3(O)C1=O [Compound P21] | eliminated activity | > 100 | 
14 |  | C[C@@H]1CC[C@@]23C[C@H](O)C(=O)[C@@]2(O)[C@]1(C)[C@H](OC(=O)CF)C[C@@H](C1=CCn2c(=O)n(-c4ccccc4)c(=O)n2C1)[C@@H]3C [Compound P22] | greatly diminished anticancer activity | 34 ± 5.7 | 
